# Results as given in patent US9045491B2, “Thienyl [3,2-D] pyrimidin-4-one compounds, preparation method, pharmaceutical compositions and use thereof” (SHANGHAI INSTITUTE OF MATERIA MEDICA, CHINESE ACADEMY OF …, priority 2011, dated 2015).
# Where “and” joins values, the source holds several entries; their conditions need not be identical. Identical values can stand only once. Entries after “also recorded” stand apart in the source; their conditions may differ.
# Test: Pharmacokinetics of DC291407 and metabolites in rats (LC-MS/MS)
# Format: in vivo, Sprague-Dawley (SD) rats
# Description: The concentration of metabolite M1 (4071001), metabolite M2 (407002) or metabolite M3 (407003) in plasma was determined by LC-MS/MS method after DC291407 was administrated to the rats through gavage and intravenous injection.
# The LC/MS/MS used is triple quadruple LC/MS 6460 from Agilent.
# Six healthy male Sprague-Dawley (SD) rats with the weight of 180-220 g were randomly divided into 2 groups. The rats in each group were administrated with the tested compound by gavage or intravenous injection, respectively.
# The compound was dissolved in 6.7% DMSO/6.7% Tween/86.6% normal saline.
# The rats fasted for 12 h and can drink water ad libitum. 2 h after dosing, the rats were provided with food all together. The time point for collecting blood samples and the sample processing are listed as follows.
# Intragastric administration: 0.25, 0.5, 1.0, 2.0, 3.0, 4.0, 6.0, 8.0 and 24 h after administration;
# Intravenous administration: 5 min, 0.25, 0.5, 1.0, 2.0, 4.0, 6.0, 8.0 and 24 h after administration. At above time point, 0.3 ml venous blood was taken from retrobulbar venous plexus of the rat and loaded into heparinization tube. After centrifuged at 11000 rpm for 5 min, the plasma was separated and frozen at −20° C. in a refrigerator.
# [1] = gavage 20 mg/kg DC291407, average of 3 animals
# [2] = gavage 20 mg/kg DC291407, individual animals, 20 mg/kg
# [3] = gavage 20 mg/kg DC291407, time 0 h, individual animals, BLQ = below lower quantification
# [4] = gavage 20 mg/kg DC291407, time 0.25 h, individual animals, 20 mg/kg
# [5] = gavage 20 mg/kg DC291407, time 0.5 h, individual animals, 20 mg/kg
# [6] = intravenous injection 10 mg/kg DC291407, average of 3 animals
# [7] = intravenous injection 10 mg/kg DC291407, individual animals, 10 mg/kg
compound,measurement,setting,value
COC(=O)c1cc2nc(N3CCCC(N)C3)n(Cc3ccccc3C#N)c(=O)c2s1 (stereo not drawn) [DC291407],concentration of M2 in plasma samples collected within one hour after administration,gavage 20 mg/kg DC291407,below 20 ng/ml
same,metabolite M3 in plasma,gavage 20 mg/kg DC291407,can not be detected
same,prototype compound in plasma,gavage 20 mg/kg DC291407,can not be detected
same,main component in plasma,"gavage 20 mg/kg DC291407, 20 mg/kg",mainly contained hydrolysis-metabolite M1; also recorded: mainly contained hydrolysis-metabolite Ml
same,AUC0-t of metabolite M1,[1],9860 ng·h/mL
same,AUC0-∞ of metabolite M1,[1],9968 ng·h/mL
same,Cmax of metabolite M1,[1],6039 ng/mL
same,MRT of metabolite M1,[1],2.58 h
same,Tmax of metabolite M1,[1],0.33 h
same,t1/2 of metabolite M1,[1],5.63 h
same,"F, absolute bioavailability","gavage 20 mg/kg DC291407, dose-normalized, based on AUC of metabolite M1",22.1%
same,AUC0-t of metabolite M1,[2],8191 ng·h/mL and 5758 ng·h/mL and 15633 ng·h/mL
same,AUC0-∞ of metabolite M1,[2],8292 ng·h/mL and 5907 ng·h/mL and 15706 ng·h/mL
same,Cmax of metabolite M1,[2],4435 ng/mL and 3427 ng/mL and 10255 ng/mL
same,MRT of metabolite M1,[2],2.86 h and 3.15 h and 1.74 h
same,Tmax of metabolite M1,[2],0.50 h and 0.25 h
same,t1/2 of metabolite M1,[2],5.37 h and 7.97 h and 3.55 h
same,Plasma concentration of metabolite M1,[3],BLQ
same,Plasma concentration of metabolite M2,[3],BLQ
same,Plasma concentration of metabolite M1,"gavage 20 mg/kg DC291407, time 0.25 h, average of 3 animals",5712 ng/mL
same,Plasma concentration of metabolite M1,[4],3454 ng/mL and 3427 ng/mL and 10255 ng/mL
same,Plasma concentration of metabolite M2,[4],3.87 ng/mL and 3.24 ng/mL and 16.3 ng/mL
same,Plasma concentration of metabolite M1,"gavage 20 mg/kg DC291407, time 0.5 h, average of 3 animals",5975 ng/mL
same,Plasma concentration of metabolite M1,[5],4435 ng/mL and 3404 ng/mL and 10087 ng/mL
same,Plasma concentration of metabolite M2,[5],4.79 ng/mL and 3.94 ng/mL and 16.9 ng/mL
same,Plasma concentration of metabolite M1,"gavage 20 mg/kg DC291407, time 1.0 h, average of 3 animals",3962 ng/mL
same,Plasma concentration of metabolite M1,"gavage 20 mg/kg DC291407, time 1.0 h, individual animals, 20 mg/kg",3326 ng/mL and 1771 ng/mL and 6789 ng/mL
same,Plasma concentration of metabolite M2,"gavage 20 mg/kg DC291407, time 1.0 h, individual animals, BLQ = below lower quantification, 20 mg/kg",3.88 ng/mL and BLQ and 10.7 ng/mL
same,Plasma concentration of metabolite M1,"gavage 20 mg/kg DC291407, time 2.0 h, average of 3 animals",1117 ng/mL
same,Plasma concentration of metabolite M1,"gavage 20 mg/kg DC291407, time 2.0 h, individual animals, 20 mg/kg",690 ng/mL and 1091 ng/mL and 1569 ng/mL
same,Plasma concentration of metabolite M2,"gavage 20 mg/kg DC291407, time 2.0 h, individual animals, BLQ = below lower quantification",BLQ
same,Plasma concentration of metabolite M1,"gavage 20 mg/kg DC291407, time 3.0 h, average of 3 animals",549 ng/mL
same,Plasma concentration of metabolite M1,"gavage 20 mg/kg DC291407, time 3.0 h, individual animals, 20 mg/kg",476 ng/mL and 299 ng/mL and 872 ng/mL
same,Plasma concentration of metabolite M2,"gavage 20 mg/kg DC291407, time 3.0 h, individual animals, BLQ = below lower quantification",BLQ
same,Plasma concentration of metabolite M1,"gavage 20 mg/kg DC291407, time 4.0 h, average of 3 animals",390 ng/mL
same,Plasma concentration of metabolite M1,"gavage 20 mg/kg DC291407, time 4.0 h, individual animals, 20 mg/kg",500 ng/mL and 105 ng/mL and 565 ng/mL
same,Plasma concentration of metabolite M2,"gavage 20 mg/kg DC291407, time 4.0 h, individual animals, BLQ = below lower quantification",BLQ
same,Plasma concentration of metabolite M1,"gavage 20 mg/kg DC291407, time 6.0 h, average of 3 animals",123 ng/mL
same,Plasma concentration of metabolite M1,"gavage 20 mg/kg DC291407, time 6.0 h, individual animals, 20 mg/kg",138 ng/mL and 57.3 ng/mL and 173 ng/mL
same,Plasma concentration of metabolite M2,"gavage 20 mg/kg DC291407, time 6.0 h, individual animals, BLQ = below lower quantification",BLQ
same,Plasma concentration of metabolite M1,"gavage 20 mg/kg DC291407, time 8.0 h, average of 3 animals",68.5 ng/mL
same,Plasma concentration of metabolite M1,"gavage 20 mg/kg DC291407, time 8.0 h, individual animals, 20 mg/kg",97.1 ng/mL and 58.9 ng/mL and 49.5 ng/mL
same,Plasma concentration of metabolite M2,"gavage 20 mg/kg DC291407, time 8.0 h, individual animals, BLQ = below lower quantification",BLQ
same,Plasma concentration of metabolite M1,"gavage 20 mg/kg DC291407, time 24 h, average of 3 animals",13.4 ng/mL
same,Plasma concentration of metabolite M1,"gavage 20 mg/kg DC291407, time 24 h, individual animals, 20 mg/kg",13.0 ng/mL (2×) and 14.3 ng/mL
same,Plasma concentration of metabolite M2,"gavage 20 mg/kg DC291407, time 24 h, individual animals, BLQ = below lower quantification",BLQ
same,main component in plasma,intravenous 10 mg/kg DC291407,mainly contained hydrolysis-metabolite M1
same,metabolite M2 in plasma,intravenous 10 mg/kg DC291407,relatively low concentration
same,prototype compound in plasma,intravenous 10 mg/kg DC291407,relatively low concentration
same,metabolite M3 in plasma,"intravenous 10 mg/kg DC291407, 10 mg/kg",can not be detected; also recorded: no metabolite M3 can be detected
same,AUC0-t of metabolite M1,[6],22274 ng·h/mL
same,AUC0-t of prototype drug,[6],36.0 ng·h/mL
same,AUC0-∞ of metabolite M1,[6],22517 ng·h/mL
same,AUC0-∞ of prototype drug,[6],39.9 ng·h/mL
same,CL of prototype drug,[6],260 L/h/kg
same,Cmax of metabolite M1,[6],45028 ng/mL
same,MRT of metabolite M1,[6],1.13 h
same,MRT of prototype drug,[6],0.78 h
same,Tmax of metabolite M1,[6],0.083 h
same,Vss of prototype drug,[6],210 L/kg
same,t1/2 of metabolite M1,[6],12.3 h
same,t1/2 of prototype drug,[6],0.68 h
same,Tmax of metabolite M1,"intravenous injection 10 mg/kg DC291407, individual animals",0.083 h
same,AUC0-t of metabolite M1,[7],22692 ng·h/mL and 20658 ng·h/mL and 23472 ng·h/mL
same,AUC0-t of prototype drug,[7],42.4 ng·h/mL and 40.9 ng·h/mL and 24.8 ng·h/mL
same,AUC0-∞ of metabolite M1,[7],23114 ng·h/mL and 20834 ng·h/mL and 23603 ng·h/mL
same,AUC0-∞ of prototype drug,[7],45.9 ng·h/mL and 43.9 ng·h/mL and 29.8 ng·h/mL
same,CL of prototype drug,[7],218 L/h/kg and 228 L/h/kg and 335 L/h/kg
same,Cmax of metabolite M1,[7],39818 ng/mL and 41730 ng/mL and 53535 ng/mL
same,MRT of metabolite M1,[7],1.60 h and 1.01 h and 0.79 h
same,MRT of prototype drug,[7],0.68 h and 0.67 h and 0.98 h
same,Vss of prototype drug,[7],148 L/kg and 154 L/kg and 328 L/kg
